Reference: US11077119B2, “Enhanced brain bioavailability of galantamine by selected formulations and transmucosal administration of lipophilic prodrugs” (Neurodyn Life Sciences Inc., priority 2012, dated 2021)
Several values for one entry are separate records, joined by “and”; a condition that tells them apart may be missing. Equal values may be shown once. Read-outs that look alike come from different tables or passages of the source.

Key:
[1] = biological target: acetylcholinesterase (AChE) (Homo sapiens, UniProt P22303); test: esterase inhibition compared with galantamine; assay type: biochemical; settings: read-out: esterase inhibition, relative to that induced by the same concentration of galantamine
Sequence of acetylcholinesterase (AChE) (P22303 32-614): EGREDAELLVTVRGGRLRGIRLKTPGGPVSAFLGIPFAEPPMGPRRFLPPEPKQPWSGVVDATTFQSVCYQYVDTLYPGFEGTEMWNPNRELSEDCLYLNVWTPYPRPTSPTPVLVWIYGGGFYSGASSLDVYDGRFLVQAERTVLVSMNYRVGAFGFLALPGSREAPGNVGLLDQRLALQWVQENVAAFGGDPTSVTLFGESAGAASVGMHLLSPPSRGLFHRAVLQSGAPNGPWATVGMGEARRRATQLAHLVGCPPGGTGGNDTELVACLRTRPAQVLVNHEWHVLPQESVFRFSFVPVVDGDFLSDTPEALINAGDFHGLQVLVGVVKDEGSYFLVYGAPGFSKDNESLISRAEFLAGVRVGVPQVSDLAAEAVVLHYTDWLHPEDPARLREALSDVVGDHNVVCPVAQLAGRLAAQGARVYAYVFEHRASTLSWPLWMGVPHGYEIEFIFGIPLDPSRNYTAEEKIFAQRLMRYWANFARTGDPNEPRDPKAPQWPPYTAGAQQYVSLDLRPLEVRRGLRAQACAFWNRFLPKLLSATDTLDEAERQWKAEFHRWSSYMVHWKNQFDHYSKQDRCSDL
Experimental: Said derivative of galantamine can be obtained by a one-step chemical modification of the parent drug (galantamine). The modification almost completely abolishes the pharmacological activity of galantamine on its two major targets in the human body, nicotinic acetylcholine receptor (nAChR) and acetylcholinesterase (AChE).
At the physiologically interesting concentration of 1 μM, Memogain has less than 4% of the esterase inhibition induced by the same concentration of galantamine.

physchem = assay type: physicochemical
Experimental: Free Base in Water: 26 μg/ml (66 μM)
Maleate in Water: 7.5 mg/ml (15 mM)
Maleate in 0.9% NaCl: 0.6 mg/ml (1.5 mM)
Free Base in Cyclodextrin-Vehicle^1): 8.9 mg/ml (23 mM)
Maleate in Cyclodextrin-Vehicle): 21 mg/ml (41 mM) ^1) 15% (109 mM) Hydroxypropyl-β-cyclodextrin, 96 mM NaCl

[2] = 3 mg/kg
Experimental: The pharmacokinetics and brain-to-blood concentration ratios (BBRC) of several galantamine derivatives and their cleavage product galantamine were evaluated after intranasal administration in Swiss albino mice at a dose of 3 mg/kg. After extraction from brain and blood, the drug concentrations were determined by LC/MS/MS. For comparison, the BBRC for the parent drug galantamine was also determined.

[3] = assay type: in vivo
Source text: Intranasal dosing can be done with simple spray-pump methods, although also many other methods can be used.

[4] = test system: scopolamine-induced amnesia in mice; test: Reversal of scopolamine-induced amnesia in T-maze; assay type: in vivo; settings: scopolamine i.p.; intranasal Memogain versus galantamine
Source text: We therefore used pharmacodynamics studies to determine the effective concentrations of parent drug in suitable experimental conditions, such as the reversal of scopolamine-induced temporary amnesia in the T-maze cognitive paradigm studied in mice. These studies confirmed that several fold higher (up to 20 fold) BBRC of parent drug (and related effectiveness in cognitive enhancement) can be achieved by transmucosal delivery of pro-drug formulations via the nasal or buccal cavity.
Mice were treated with scopolamine to induce acute amnesia and were then tested for performance in a T-maze, in the absence or presence of […] galantamine or intranasal Memogain (FIG. 7). […] Mice were challenged with Scopolamine i.p. in a T-maze assay to induce disorientation/amnesia (set to 0% performance recovery). Co-application of galantamine (i.p.) or of Memogain® (i.n.) rescues orientation in the T-maze in a dose-dependent manner.

[5] = set-up: species or system Wistar rats; settings: rat, in vivo, 3 mg/kg
Experimental: The first-pass effect of Gln-1062 was evaluated after intravenous and intraportal dosing of 3 mg/kg in Wistar rats (FIG. 8).

in vivo = test: in vivo
Experimental: The study was performed in dogs. A single dose of 4 mg/kg intranasal Memogain was administered and the plasma levels of Memogain and liberated galantamine were determined as a function of time after administration.

ferrets = test: Gastro-intestinal side effects in ferrets; settings: i.p.
Experimental: These studies were performed in ferrets that were dosed i.p. with either 20 mg/kg galantamine (maximal tolerated dose), or with 20, 40 and 80 mg/kg Memogain, respectively.

dogs [6] = test: Safety after intravenous bolus; assay type: in vivo
Experimental: Example 13. Memogain is at Least 10 Times Safer than Galantamine
This study was performed in dogs, and both drugs were administered as intravenous bolus. The lower toxicity of Memogain is due to the much lower steady-state plasma levels of galantamine resulting from enzymatic cleavage of the pro-drug (FIG. 11).

rats [7] = settings: rat, in vivo
rats [8] = settings: rat, in vivo; remark: listed apart in the source
dogs [9] = settings: dog, in vivo
[10] = in vivo
[11] = mouse, in vivo
Experimental: Mice were injected with 3 mg/kg i.v. of either Memogain or galantamine.

[12] = Solubility test of Memogain salts in water (HPLC); assay type: physicochemical; settings: after warming to >50° C.; precipitation seeding avoided
Experimental: 10 mg of the corresponding salt and 100 microliters of water were sonicated for 5 min at r.t. The resulting solution or suspension was centrifuged for 3 min. and filtered using a filter tip. 10 microliters of the filtrate was transferred in a volumetric flask and diluted to 10.0 ml with water to obtain the sample solution. 20 microliters of this sample solution was injected for HPLC and the amount of Memogain quantified using a Merck Chromolith RP18 column and a gradient of 5% to 60% acetonitrile and water, both solvents containing 0.1% formic acid, injection volume: 20 microliters.

## COc1ccc2c3c1O[C@H]1C[C@@H](OC(=O)c4ccccc4)C=C[C@@]31CCN(C)C2 [GLN-1062, (4aS,6R,8aS)-4a,5,9,10,11,12-hexahydro-3-methoxy-11-methyl-6H-Benzofuro[3a,3,2-ef][2]benzazepin-6-ol, 6-benzoate]
[1]
  inhibition at 1 µM: < 4%
physchem; aqueous with cosolvent or surfactant or cyclodextrin
  solubility: 8900 µg/mL and 23000 µM
physchem; water
  solubility: 26 µg/mL and 66 µM
[2]; mouse, in vivo
  BBRC compared with galantamine: particularly large BBRC
[3]; in vivo
  GI side effects: no GI side effects were observed
[4]
  reversal of acutely induced amnesia (T-maze performance): more effective than galantamine
[5]
  maximal concentration levels in the brain, compared with i.v. administration: similarly high maximal concentration levels
In vivo; dog
  half-life: 1.5 h
In vivo; dog, 4 mg/kg
  Kp at 120 min: 9
ferrets; from dose dependency of adverse effects (20, 40, 80 mg/kg)
  lower toxicity as compared to galantamine: at least 4 times
Dogs [6]
  safety compared with galantamine: at Least 10 Times
Rats [7]
  adverse effects compared with galantamine: much less adverse effects
Rats [8]
  adverse effects compared with galantamine: much less adverse effects
Dogs [9]
  adverse effects compared with galantamine: much less adverse effects
[10]
  GI-related side effects: GI-related side effects had practically disappeared

## COc1ccc2c3c1O[C@H]1C[C@@H](O)C=C[C@@]31CCN(C)C2 [galantamine]
[11]
  BBRC: ~1:1
In vivo; in vivo, 4 mg/kg
  Kp at 120 min: 1 to 1.5
  half-life: 6 h
ferrets
  maximal tolerated dose: 20 mg/kg

## COc1ccc2c3c1O[C@H]1C[C@@H](OC(=O)c4ccccc4)C=C[C@@]31CCN(C)C2.O=C(O)C(O)C(O)C(O)C(O)CO [Memogain gluconate, galantamine benzoate gluconate]
[12]
  stability of metastable high-concentration aqueous solution: stable for hours and days
[2]; intranasal, LC/MS/MS
  BBRC compared with galantamine: much larger BBRC than galantamine
[3]; intranasal
  local sensation on intranasal dosing: no burning sensation to nose

## COc1ccc2c3c1O[C@H]1C[C@@H](OC(=O)c4ccccc4)C=C[C@@]31CCN(C)C2.O=C(O)/C=C\C(=O)O [Memogain maleate]
physchem; 0.9% NaCl
  Solubility in 0.9% NaCl: 0.6 mg/ml and 1.5 mM
physchem; 15% (109 mM) Hydroxypropyl-β-cyclodextrin, 96 mM NaCl
  Solubility in Cyclodextrin-Vehicle: 21 mg/ml and 41 mM
physchem; water
  Solubility in Water: 7.5 mg/ml and 15 mM
